Measurements from PubChem BioAssay AID1963862 (Molecular Pharmacology Branch, DTP, NCI, 2024).

Test system: KRAS patient-derived spheroids with HUVEC/MSC, viability
Test: Anticancer human tumor 941728-121-R-J1-PDC patient-derived lung adenocarcinoma cell line growth inhibition [KRAS2]
Conditions: for IC50: curve of first compound; for viability, T/C: stronger effect = lower value
In short: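 Combination screen of spheroid viability in tumor-cell co-cultures with endothelial (HUVEC) and mesenchymal stem cell stroma. Each agent was tested in half-log dilutions, topping at clinical Cmax or at 10 microM without a known Cmax.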

[1] = second compound 0.1 µM, first compound 0.0001 µM
[2] = second compound 0.1 µM, first compound 0.000316 µM
[3] = second compound 0.1 µM, first compound 0.001 µM
[4] = second compound 0.1 µM, first compound 0.00316 µM
[5] = second compound 0.1 µM, first compound 0.01 µM
[6] = second compound 0.1 µM, first compound 0.0316 µM
[7] = second compound 0.316 µM, first compound 0.0001 µM
[8] = second compound 0.316 µM, first compound 0.000316 µM
[9] = second compound 0.316 µM, first compound 0.001 µM
[10] = second compound 0.316 µM, first compound 0.00316 µM
[11] = second compound 0.316 µM, first compound 0.01 µM
[12] = second compound 0.316 µM, first compound 0.0316 µM
[13] = second compound 1 µM, first compound 0.0001 µM
[14] = second compound 1 µM, first compound 0.000316 µM
[15] = second compound 1 µM, first compound 0.001 µM
[16] = second compound 1 µM, first compound 0.00316 µM
[17] = second compound 1 µM, first compound 0.01 µM
[18] = second compound 1 µM, first compound 0.0316 µM
[19] = second compound 3.16 µM, first compound 0.0001 µM
[20] = second compound 3.16 µM, first compound 0.000316 µM
[21] = second compound 3.16 µM, first compound 0.001 µM
[22] = second compound 3.16 µM, first compound 0.00316 µM
[23] = second compound 3.16 µM, first compound 0.01 µM
[24] = second compound 3.16 µM, first compound 0.0316 µM
[25] = second compound 10 µM, first compound 0.0001 µM
[26] = second compound 10 µM, first compound 0.000316 µM
[27] = second compound 10 µM, first compound 0.001 µM
[28] = second compound 10 µM, first compound 0.00316 µM
[29] = second compound 10 µM, first compound 0.01 µM
[30] = second compound 10 µM, first compound 0.0316 µM
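Note: spheroids exposed to agents for seven days before readout.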

With `CC(=O)Nc1cccc(-n2c(=O)n(C3CC3)c(=O)c3c(Nc4ccc(I)cc4F)n(C)c(=O)c(C)c32)c1` + C=CC(=O)N1CCN(c2nc(=O)n(-c3c(C)ccnc3C(C)C)c3nc(-c4c(O)cccc4F)c(F)cc23)C(C)C1 the IC50 (second compound 0.1 µM) was less than 100 pM, the IC50 (second compound 0.316 µM) was less than 100 pM and the IC50 (second compound 1 µM) was less than 100 pM. The IC50 (second compound 3.16 µM) was less than 100 pM, the IC50 (second compound 10 µM) was less than 100 pM and the viability, T/C [1] was 27.9%. It also gave a viability, T/C [2] of 26.2%, a viability, T/C [3] of 20.3% and a viability, T/C [4] of 21.6%. The viability, T/C [5] was 19.6%, the viability, T/C [6] was 19.3% and the viability, T/C [7] was 26%. It also gave a viability, T/C [8] of 25.4%, a viability, T/C [9] of 24.1% and a viability, T/C [10] of 22.9%. It also gave a viability, T/C [11] of 20.2%, a viability, T/C [12] of 19.3% and a viability, T/C [13] of 27.5%. The viability, T/C [14] was 28.3%, the viability, T/C [15] was 24.2% and the viability, T/C [16] was 23.6%. For the same molecule, the viability, T/C [17] was 22.3%, the viability, T/C [18] was 20.4% and the viability, T/C [19] was 27.3%. It also gave a viability, T/C [20] of 30.1%, a viability, T/C [21] of 26.9% and a viability, T/C [22] of 25.9%. The viability, T/C [23] was 28.6%, the viability, T/C [24] was 23.4% and the viability, T/C [25] was 35.8%. For the same molecule, the viability, T/C [26] was 31.4%, the viability, T/C [27] was 36.3% and the viability, T/C [28] was 36.2%. For the same molecule, the viability, T/C [29] was 29.6% and the viability, T/C [30] was 29%.

`O=C(c1cc(Cc2n[nH]c(=O)c3ccccc23)ccc1F)N1CCN(C(=O)C2CC2)CC1` + CC1OCC2(CCN(c3cnc(Sc4ccnc(N)c4Cl)c(N)n3)CC2)C1N was tested, and the IC50 (second compound 0.1 µM) was less than 31600 pM, the IC50 (second compound 0.316 µM) was less than 31600 pM and the IC50 (second compound 1 µM) was 87300 pM. The IC50 (second compound 3.16 µM) was less than 31600 pM, the IC50 (second compound 10 µM) was less than 31600 pM and the viability, T/C [6] was 50.3%. It also gave a viability, T/C (second compound 0.1 µM, first compound 0.1 µM) of 47.7%, a viability, T/C (second compound 0.1 µM, first compound 0.316 µM) of 48.3% and a viability, T/C (second compound 0.1 µM, first compound 1 µM) of 53.1%. The viability, T/C (second compound 0.1 µM, first compound 3.16 µM) was 62.1%, the viability, T/C (second compound 0.1 µM, first compound 10 µM) was 69.7% and the viability, T/C [12] was 41.9%. It also gave a viability, T/C (second compound 0.316 µM, first compound 0.1 µM) of 45.4%, a viability, T/C (second compound 0.316 µM, first compound 0.316 µM) of 52.8% and a viability, T/C (second compound 0.316 µM, first compound 1 µM) of 53.7%. For the same molecule, the viability, T/C (second compound 0.316 µM, first compound 3.16 µM) was 57.8%, the viability, T/C (second compound 0.316 µM, first compound 10 µM) was 60.7% and the viability, T/C [18] was 65.1%. It also gave a viability, T/C (second compound 1 µM, first compound 0.1 µM) of 45%, a viability, T/C (second compound 1 µM, first compound 0.316 µM) of 45.7% and a viability, T/C (second compound 1 µM, first compound 1 µM) of 41.6%. The viability, T/C (second compound 1 µM, first compound 3.16 µM) was 49%, the viability, T/C (second compound 1 µM, first compound 10 µM) was 58.6% and the viability, T/C [24] was 31.9%. It also gave a viability, T/C (second compound 3.16 µM, first compound 0.1 µM) of 36.3%, a viability, T/C (second compound 3.16 µM, first compound 0.316 µM) of 35.3% and a viability, T/C (second compound 3.16 µM, first compound 1 µM) of 38.2%. For the same molecule, the viability, T/C (second compound 3.16 µM, first compound 3.16 µM) was 41.3%, the viability, T/C (second compound 3.16 µM, first compound 10 µM) was 45.7% and the viability, T/C [30] was 26.1%. The viability, T/C (second compound 10 µM, first compound 0.1 µM) was 22.3%, the viability, T/C (second compound 10 µM, first compound 0.316 µM) was 29.6% and the viability, T/C (second compound 10 µM, first compound 1 µM) was 28.5%. The viability, T/C (second compound 10 µM, first compound 3.16 µM) was 35.1% and the viability, T/C (second compound 10 µM, first compound 10 µM) was 29.3%.

In the case of `CC(=O)Nc1cccc(-n2c(=O)n(C3CC3)c(=O)c3c(Nc4ccc(I)cc4F)n(C)c(=O)c(C)c32)c1` + COc1cc2nc(C)nc(NC(C)c3cc(N)cc(C(F)(F)F)c3)c2cc1OC1CCOC1, the IC50 (second compound 0.1 µM) is reported as 129 pM, the IC50 (second compound 0.316 µM) is reported as less than 100 pM and the IC50 (second compound 1 µM) is reported as less than 100 pM. For the same molecule, the IC50 (second compound 3.16 µM) was less than 100 pM, the IC50 (second compound 10 µM) was less than 100 pM and the viability, T/C [1] was 51.3%. It also gave a viability, T/C [2] of 47.6%, a viability, T/C [3] of 39.7% and a viability, T/C [4] of 39.5%. For the same molecule, the viability, T/C [5] was 39.4%, the viability, T/C [6] was 29.4% and the viability, T/C [7] was 44.3%. The viability, T/C [8] was 40.5%, the viability, T/C [9] was 40% and the viability, T/C [10] was 35.8%. For the same molecule, the viability, T/C [11] was 36.3%, the viability, T/C [12] was 29.9% and the viability, T/C [13] was 41.1%. The viability, T/C [14] was 40.8%, the viability, T/C [15] was 38.1% and the viability, T/C [16] was 30.6%. It also gave a viability, T/C [17] of 31.1%, a viability, T/C [18] of 25.7% and a viability, T/C [19] of 32%. For the same molecule, the viability, T/C [20] was 29%, the viability, T/C [21] was 24.6% and the viability, T/C [22] was 18.8%. The viability, T/C [23] was 21.8%, the viability, T/C [24] was 17.7% and the viability, T/C [25] was 6.11%. It also gave a viability, T/C [26] of 3.95%, a viability, T/C [27] of 3.66% and a viability, T/C [28] of 2.67%. The viability, T/C [29] was 2.71% and the viability, T/C [30] was 2.71%.
